Experimental data as given in patent US10000474B2, “Histone deacetylase inhibitors and uses thereof” (MUSC FOUNDATION FOR RESEARCH DEVELOPMENT, priority 2014, dated 2018).
Where a name gives a salt, the structure may show the parent alone.

How the values were obtained:
[1] = Cell proliferation assay (MTS, cytotoxicity); format: cell-based; settings: human; cell line not given (MV4-11 24 hours or MCF-7 72 hours); 1 μM to 100 μM; average of triplicate
Experimental: The cytotoxicity of representative compounds of the invention was determined by MTS assay, following the protocol of CellTiter 96® AQueous Non-Radioactive Cell Proliferation Assay (Promega). The cells used in this assay were MV4-11 (human, macrophage, biphenotypic B myelomonocytic leukemia) and MCF-7 (human, epithelial, adenocarcinoma). […] The MV-4-11 cells were incubated with the representative compounds for 24 hours at 37° C. in 5% CO2 while the MCF-7 cells were first seeded on the 96-well plate and were allowed to attach for 1 day and then were incubated with different concentrations of the representative compound for 72 hours at 37° C. in 5% CO2. After 24 or 72 hours 20 μl of MTS reagent solution was added into each well and the cells were incubated for another 4 hours at 37° C. under 5% CO2 environment. The absorbance was measured at 490 nm in a SpectraMax M5 plate reader (Molecular Devices) to determine the cell viability. The absorbance was directly proportional to the amount of viable cells. All determinations were carried out in triplicate, and reported values in Table 2 below were the average of these determinations, which in no case varied by more than 5%.

Recombinant human HDAC8 = target: T1, Recombinant human HDAC8 (Homo sapiens, UniProt Q9BY41); experiment: HDAC inhibitory assay, HDAC8 (Ac-RHK(Ac)K(Ac)-AMC substrate); format: biochemical; settings: test concentration not given; average of triplicate
T1 construct: purchased BPS Biosciences
T1 sequence (Q9BY41 1-377): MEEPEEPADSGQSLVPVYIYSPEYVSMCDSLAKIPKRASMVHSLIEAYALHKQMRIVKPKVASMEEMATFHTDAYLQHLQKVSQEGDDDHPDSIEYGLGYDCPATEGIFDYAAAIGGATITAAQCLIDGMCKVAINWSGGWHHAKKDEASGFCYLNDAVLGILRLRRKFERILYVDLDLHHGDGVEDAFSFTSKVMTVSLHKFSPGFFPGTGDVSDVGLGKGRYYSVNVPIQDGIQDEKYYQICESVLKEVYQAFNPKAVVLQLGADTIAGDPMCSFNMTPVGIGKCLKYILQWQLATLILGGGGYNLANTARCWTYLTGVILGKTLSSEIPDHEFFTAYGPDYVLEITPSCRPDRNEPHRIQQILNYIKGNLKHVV
Experimental: The compounds of Examples 1-12 and 14-16 were evaluated for their ability to act as inhibitors of human HDAC. The compound of Example 13 was not tested. Recombinant human HDAC1, HDAC2, HDAC3/NcoR2, HDAC5, HDAC6, HDAC8, HDAC9, HDAC10 and HDAC11 were purchased from BPS Biosciences. Recombinant human HDAC4 and HDAC7 were purchased from Millipore. The substrate Boc-Lys(Ac)-AMC and Boc-Lys(Tfa)-AMC were purchased from Bachem. The substrate Ac-RHK(Ac)K(Ac)-AMC was purchased from Enzo Life Sciences. Due to the different specific activities of each isoform, different amount of enzyme was used in each isoform screening assay. In these assays, trichostatin A (TSA), suberanilohydroxamic acid and diphenylacetohydroxamic acid (DPAHA) were employed as positive controls. All determinations were carried out in triplicate, and reported values were the average of these determinations, which in no case varied by more than 5%.
For evaluating the inhibition of HDAC8, 10 μl of test samples were first incubated with 25 ng HDAC8 (specific activity 298 pmol/min/μg). Then 25 μl of the fluorogenic peptide from p53 residues 379-382 (Ac-RHK(Ac)K(Ac)-AMC, 50 μM final concentration) was added and incubated at 37° C. for 30-60 min, and followed by adding 50 μl of developer (1 mg/ml trypsin and 1 uM TSA). The last step was to read the samples in a SpectraMax M5 plate reader (Molecular Devices) at an excitation wavelength of 360 nm and an emission wavelength of 460 nm.

Row | SMILES | IC50 [1] [µM] | melting point [°C] | HDAC 8 inhibitory activity (Recombinant human HDAC8) [%]
1 | O=C(Nc1ccccc1)c1coc(-c2ccccc2O)n1 [Example 1, 2-(2-Hydroxyphenyl)-N-phenyloxazole-4-carboxamide] | 25 | 173 to 174 | 0
2 | O=C(NC(c1ccccc1)c1ccccc1)c1coc(-c2ccccc2O)n1 [Example 2, N-Benzhydryl-2-(2-hydroxyphenyl)oxazole-4-carboxamide] | 7.6 | 226 to 227 | 23.3
3 | O=C(NCC(c1ccccc1)c1ccccc1)c1coc(-c2ccccc2O)n1 [Example 3, N-(2,2-Diphenylethyl)-2-(2-hydroxyphenyl)oxazole-4-carboxamide] | 40 | 206 to 208 | 16.7
4 | O=C(NCCC(c1ccccc1)c1ccccc1)c1coc(-c2ccccc2O)n1 [Example 4, N-(3,3-Diphenylpropyl)-2-(2-hydroxyphenyl)oxazole-4-carboxamide] | – | – | 7.2
5 | O=C(Nc1ccc(-c2ccccc2)cc1)c1coc(-c2ccccc2O)n1 [Example 5, N-([1,1′-Biphenyl]-4-yl)-2-(2-hydroxyphenyl)oxazole-4-carboxamide] | – | 218 to 219 | 7.2
6 | O=C(NCc1ccc(-c2ccccc2)cc1)c1coc(-c2ccccc2O)n1 [Example 6, N-([1,1′-Biphenyl]-4-ylmethyl)-2-(2-hydroxyphenyl)oxazole-4-carboxamide] | > 100 | 220 to 221 | 17.9
7 | O=C(NCc1cccc2ccccc12)c1coc(-c2ccccc2O)n1 [Example 7, 2-(2-Hydroxyphenyl)-N-(naphthalen-1-ylmethyl)oxazole-4-carboxamide] | – | – | 10.6
8 | O=C(NCCc1c[nH]c2ccccc12)c1coc(-c2ccccc2O)n1 [Example 8, N-(2-(1H-Indol-3-yl)ethyl)-2-(2-hydroxyphenyl)oxazole-4-carboxamide] | – | – | 7.7
9 | O=C(NCCCCN1C(=O)c2ccccc2C1=O)c1coc(-c2ccccc2O)n1 [Example 9, N-(4-(1,3-Dioxoisoindolin-2-yl)butyl)-2-(2-hydroxyphenyl)oxazole-4-carboxamide] | – | – | 9.6
10 | O=C(NCCCCNC(=O)C(c1ccccc1)c1ccccc1)c1coc(-c2ccccc2O)n1 [Example 10, N-(4-(2,2-Diphenylacetamido)butyl)-2-(2-hydroxyphenyl)oxazole-4-carboxamide] | – | – | 0
11 | O=C(NCCCCNC(=S)NCCC(c1ccccc1)c1ccccc1)c1coc(-c2ccccc2O)n1 [Example 11, N-(4-(3-(3,3-Diphenylpropyl)thioureido)butyl)-2-(2-hydroxyphenyl)oxazole-4-carboxamide] | – | – | 0
12 | O=C(NCCCCNCCC(c1ccccc1)c1ccccc1)c1coc(-c2ccccc2O)n1 [Example 12, N-(4-((3,3-Diphenylpropyl)amino)butyl)-2-(2-hydroxyphenyl)oxazole-4-carboxamide hydrochloride] | – | – | 14.0
13 | O=C(O)c1ccc(CNC(=O)c2coc(-c3ccccc3O)n2)cc1 [Example 14, 4-((2-(2-Hydroxyphenyl)oxazole-4-carboxamido)methyl)benzoic acid] | – | 248 to 251 | 20.0
14 | O=C(Nc1ccccc1)c1ccc(CNC(=O)c2coc(-c3ccccc3O)n2)cc1 [Example 15, 2-(2-Hydroxyphenyl)-N-(4-(phenylcarbamoyl)benzyl)oxazole-4-carboxamide] | – | – | 0
15 | O=C(CNC(=O)c1coc(-c2ccccc2O)n1)Nc1ccccc1 [Example 16, 2-(2-Hydroxyphenyl)-N-(2-oxo-2-(phenylamino)ethyl)oxazole-4-carboxamide] | – | – | 15.0
